#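 Where inhibition never reached the appropriate level, the endpoint shown equals the highest concentration tested. Otherwise, values were interpolated linearly from a five-concentration, 48-hour dose response in 96-well plates. At the GI50, growth is halved.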 Active and inactive are the calls of the source. Rule as the data show it: active = GI50 up to about 1.1 µM and inactive = higher.
# How the values were obtained:
# Experiment in all cases: growth of human tumour cells (NCI), 48 h
# BT-549 = system: BT-549
# DLD-1 = system: DLD-1
# SNB-78 = system: SNB-78
# DMS-273 = system: DMS-273
# M19-MEL = system: M19-MEL
# KM-20L2 = system: KM-20L2
# LXFL 529 = system: LXFL 529
# XF498 = system: XF498
# RXF 631 = system: RXF 631
Compound,GI50 (BT-549),GI50 (DLD-1),GI50 (SNB-78),GI50 (DMS-273),GI50 (M19-MEL),other results
CCCCCCCC(=O)OC[n+]1cccc(-c2c(COC(=O)NC(C)C)c(COC(=O)NC(C)C)c3n2CCC3)c1,> 84.5 µM (inactive),–,–,–,–,–
COc1ccc(Cc2nc3cc(Cl)ccc3o2)cc1,19.4 µM (inactive),–,–,–,–,–
O=C1OC[C@H]2[C@@H]1[C@H]1O[C@@H]2C2=C(CCC2)C1=O,> 100 µM (inactive),–,–,–,–,–
C(=N\OCc1ccccc1)/c1ncccc1C1OCCO1,–,> 100 µM (inactive),> 100 µM (inactive),> 100 µM (inactive),> 100 µM (inactive),GI50 (KM-20L2): > 100 µM (inactive); GI50 (LXFL 529): > 100 µM (inactive)
CN(/N=C/c1cccc2cccnc12)c1ccc([N+](=O)[O-])cc1,–,> 100 µM (inactive),> 100 µM (inactive),> 100 µM (inactive),> 100 µM (inactive),GI50 (XF498): > 100 µM (inactive); GI50 (KM-20L2): > 100 µM (inactive); GI50 (LXFL 529): > 100 µM (inactive)
Cc1cc(C)n(C2OC(CO)C(O)C(O)C2O)c(=S)c1C#N (configuration not stated),> 100 µM (inactive),–,–,–,–,–
C/C=C(\C)c1cc(O)c(C)c2c1Oc1cc(O)c(Cl)c(C)c1C(=O)O2,–,17.4 µM (inactive),29.1 µM (inactive),34.1 µM (inactive),34 µM (inactive),GI50 (KM-20L2): 20.7 µM (inactive); GI50 (LXFL 529): 24.8 µM (inactive)
CCN(CCO)CC1COc2ccccc2O1 (configuration not stated),> 100 µM (inactive),–,–,–,–,–
NC(=O)c1csc(C2OC(CO)C(O)C2O)n1 (configuration not stated),885 µM (inactive),8.57 µM (inactive),92.7 µM (inactive),30.8 µM (inactive),29 µM (inactive),GI50 (XF498): 67.8 µM (inactive); GI50 (KM-20L2): 43.8 µM (inactive)
CCCC(=O)N1CCN(c2ccc3c(c2)OC(C)O3)CC1 (configuration not stated),> 100 µM (inactive),–,–,–,–,–
O=C1C(c2ccccc2)=[N+]([O-])c2cc([N+](=O)[O-])c(/C(Cl)=C/c3ccccc3)cc21,–,14.2 µM (inactive),29.4 µM (inactive),18.1 µM (inactive),15.3 µM (inactive),GI50 (RXF 631): 6.7 µM (inactive); GI50 (LXFL 529): > 10 µM (inactive)
COC(=O)C(=O)C(C(=O)C(=O)Nc1ccc(C)c(C)c1)c1nc2ccc([N+](=O)[O-])cc2nc1O (configuration not stated),> 100 µM (inactive),–,–,–,–,–
Oc1c(CN2CCOCC2)ccc(CN2CCOCC2)c1O,81.3 µM (inactive),–,–,–,–,–
CCC12C=CCN3CC[C@]4(C(=C(C(=O)OC)[C@@H]1Nc1ncnc5c1ncn5C1OC(COC(C)=O)C(OC(C)=O)C1OC(C)=O)Nc1ccccc14)C32 (some centres not stated),–,2.69 µM (inactive),3.15 µM (inactive),2.75 µM (inactive),1.99 µM (inactive),GI50 (XF498): 3 µM (inactive); GI50 (KM-20L2): 2.71 µM (inactive); GI50 (LXFL 529): 2.4 µM (inactive)
CCN1CCC(O)(/C=C/c2ccc(Cl)cc2)C(C(=O)/C=C/c2ccc(Cl)cc2)C1 (configuration not stated),–,16.5 µM (inactive),45.5 µM (inactive),28.4 µM (inactive),29.9 µM (inactive),GI50 (XF498): 81.1 µM (inactive); GI50 (KM-20L2): 32.1 µM (inactive); GI50 (LXFL 529): 14.7 µM (inactive)
CC1CN=C(Nc2ccccc2)S1 (configuration not stated),> 100 µM (inactive),–,–,–,–,–

Compound,GI50 (BT-549),GI50 (DLD-1),GI50 (SNB-78),GI50 (DMS-273),GI50 (M19-MEL),other results
Cc1cccc2c1Oc1cc(Cl)ccc1C2NC(=O)CN(C)C (configuration not stated),–,58.3 µM (inactive),50.7 µM (inactive),28.8 µM (inactive),20.9 µM (inactive),GI50 (KM-20L2): 20 µM (inactive); GI50 (LXFL 529): 57.4 µM (inactive)
Cc1c(C)c2c(c(N)c1C#N)C(=O)N(NC(=S)Nc1ccccc1)C2=O,> 100 µM (inactive),–,–,–,–,–
O=C(O)c1cscc1Cc1cccs1,> 100 µM (inactive),–,–,–,–,–
CN(C)c1nc(N(C)c2ccccc2)[s+]s1,–,92.3 µM (inactive),> 100 µM (inactive),47.2 µM (inactive),18.9 µM (inactive),GI50 (XF498): 20 µM (inactive); GI50 (KM-20L2): > 100 µM (inactive); GI50 (LXFL 529): 36.8 µM (inactive)
Clc1ccc(C(c2ccc(Cl)cc2)N2CCNCC2)cc1,16.9 µM (inactive),–,–,–,–,–
O=C1CC2OCC=C3CN4CCC5(C(=O)O)C(N1)C2C3CC45 (configuration not stated),> 100 µM (inactive),–,–,–,–,–
C[NH+]1[C@@H](Cc2ccccc2)C(=O)O[B-]1(F)c1ccccc1 (some centres not stated),> 100 µM (inactive),–,–,–,–,–
O[C@]12C=C(c3nccc4c3[nH]c3ccccc34)[C@@H]3CCN(CCCC/C=C\CC1)C[C@@]31CC3/C=C\CCCCN3[C@H]12 (some centres not stated),0.804 µM (active),–,–,–,–,–
C[P+]1(c2ccccc2)CCCCC1,–,> 100 µM (inactive),> 100 µM (inactive),> 100 µM (inactive),> 100 µM (inactive),GI50 (RXF 631): > 100 µM (inactive); GI50 (KM-20L2): > 100 µM (inactive); GI50 (LXFL 529): > 100 µM (inactive)
O=S(=O)(NC1OCCCC1I)c1ccccc1 (configuration not stated),> 100 µM (inactive),–,–,–,–,–
CO[C@@H]1C[C@H](OC(N)=O)[C@@H]2C=C[C@@H]3/C=C(C)/C=C/[C@@H](C)[C@H](/C(C)=C/[C@@H](C)NC(C)=O)OC(=O)/C=C/C=C(C)\C=C\[C@]3(C)[C@@H]2C1 [SUPERSTOLIDE B],0.224 µM (active),–,–,–,–,–
O=C(N/N=C\c1ccc([N+](=O)[O-])s1)c1ccncc1,11.3 µM (inactive),–,–,–,–,–
CC(=O)N1C(CCc2ccccc2)CC(C)(C=O)C1Cc1ccc(O[Si](C(C)C)(C(C)C)C(C)C)cc1 (configuration not stated),15.6 µM (inactive),–,–,–,–,–
NC(=S)Nc1nc(=S)[nH]c2c1SC1=N/C(=C\c3ccco3)C(=O)N12,> 100 µM (inactive),–,–,–,–,–
Nc1nc(SCC(=O)O)nc(O)c1N,> 100 µM (inactive),–,–,–,–,–
